Experimental findings from US5811582A, “Dimethyl-(3-aryl-but-3-enyl)-amine compounds as pharmaceutical active ingredients” (priority 1996, dated 1998) are described below.

The term ED50 denotes the dose that gives a 50% effect, or the effect in half of the subjects.

Structures are written as SMILES. Where a name gives a salt, the structure may show the parent alone.

In one assay the test system is mice. In words: Phenylquinone-induced writhing test on mice (analgesia). It is filed as in vivo, male NMRI mice. As to conditions: Mus musculus, iv, read-out: ED50 (writhing test on mice). Here is the method:
Testing for analgesia using the writhing test on mice
Testing for analgesic effectiveness was performed using the phenylquinone-induced writhing test on mice, modified according to I. C. Hendershot, J. Forsaith, J. Pharmacol. Exp. Ther. 125, 237-240 (1959). Male NMRI mice with a weight of 25-30 g were used for this purpose. For each dose of substance, groups of 10 animals received, 10 minutes after the intravenous administration of a compound according to the invention, 0.3 ml per mouse of an 0.02% aqueous solution of phenylquinone (phenylbenzoquinone: manufactured by Sigma, Deisenhofen; solution prepared with the addition of 5% ethanol and kept on a water bath at 45° C.) administered intraperitoneally. The animals were placed individually in observation cages. The number of pain-induced stretching movements (so-called writhing reactions=straightening of the body with stretching of the rear extremities) 5-20 minutes after the administration of phenylquinone was counted by means of a push-button counter.
The ED50 values of the writhing reaction were calculated by means of regression analysis (evaluation program supplied by Martens EDV Service, Eckental) from the dose-dependent decrease in the writhing reactions, by comparison with groups of animals which were tested in parallel and to which no compounds according to the invention were administered.
Turning to `COc1cccc([C@@]2(O)CCCC[C@@H]2CN(C)C)c1.Cl` (racemic) [tramadol, (1RS,2RS)-2-dimethylaminomethyl-1-(3-methoxy-phenyl)-cyclohexanol hydrochloride, reference compound], the median effective dose (ED50) was 3.68 mg/kg.

The assay is the same for the next values; noted with them: Mus musculus; mice; intravenous, 10 minutes before phenylquinone (0.3 ml of 0.02% solution i.p.); writhing reactions counted 5-20 minutes after phenylquinone; read-out: ED50 (writhing test on mice).
For the molecule `C/C=C(\c1cccc(O)c1)C(C)CN(C)C.Cl` (racemic) [Example 2, (Z)-(RS)-3-[1-(2-dimethylamino-1-methyl-ethyl)-propenyl]-phenol hydrochloride], the ED50 stood at 1.37 mg/kg. In the case of `C/C=C(\c1cccc(OC(=O)c2ccccc2OC(C)=O)c1)C(C)CN(C)C` (racemic) [Example 4, (Z)-(RS)-2-acetoxy-benzoic acid-3-[1-2-dimethylamino-1-methyl-ethyl)-propenyl]-phenyl ester hydrochloride], the median effective dose (ED50) turned out to be 1.64 mg/kg. In the case of `C/C=C(\c1ccc2cc(O)ccc2c1)C(C)CN(C)C.Cl` (racemic) [Example 12, (Z)-(RS)-6-[1-(2-dimethylamino-1-methyl-ethyl)-propenyl]-naphth-2-ol hydrochloride], the ED50 was found to be 0.97 mg/kg. On to `CC/C=C(\c1cccc(O)c1)C(C)CN(C)C.Cl` (racemic) [Example 15, (Z)-(RS)-3-[1-(2-dimethylamino-1-methyl-ethyl)-but-1-enyl]-phenol hydrochloride], for which the ED50 was 1.33 mg/kg.

Take `CC(C)=C(c1cccc(O)c1)C(C)CN(C)C.Cl` (racemic) [Example 18, (RS)-3-[1-(2-dimethylamino-1-methyl-ethyl)-2-methyl-propenyl]-phenol hydrochloride]: the ED50 stood at 2.07 mg/kg. As for `Cc1cc2c(C3=CCCCC3CN(C)C)cccc2s1.Cl` (racemic) [Example 24, (RS)-dimethyl-[2-(2-methyl-benzo[b]thiophen-4-yl]-cyclohex-2-enylmethyl]-amine hydrochloride], the 50% effective dose (ED50) is 1.35 mg/kg. On the same count and under the same terms, in the case of `C/C=C(\c1cccc(O)c1)[C@H](C)CN(C)C` [3 (+)-enantiomer] it was 2.25 mg/kg.

For `C/C=C(\c1cccc(O)c1)[C@@H](C)CN(C)C` [3 (-)-enantiomer], the ED50 stood at 0.98 mg/kg. Turning to `CN(C)C[C@H]1CCC=C1c1ccc(C(F)(F)F)cc1` [20 (+)-enantiomer], the 50% effective dose (ED50) worked out at 1.4 mg/kg. `CN(C)C[C@@H]1CCC=C1c1ccc(C(F)(F)F)cc1` [20 (-)-enantiomer]: the ED50 worked out at 2.12 mg/kg.

`C[C@@H]1C=C(c2cccc(O)c2)[C@H](CN(C)C)CC1` [25 (-)-enantiomer]: the ED50 stood at 0.9 mg/kg. On the same count and under the same terms, for `CN(C)C[C@@H]1CCCC=C1c1cccc(O)c1` [26 (-)-enantiomer] the value was 1.04 mg/kg. Still for that read-out and setting: for `CN(C)C[C@H]1CCCC=C1c1cccc(O)c1` [27 (+)-enantiomer] the value was 1.6 mg/kg.
